In DBAASP one finds MIC data, which are given here for nine compounds.

Holding throughout (test): ≥ marks a high value that may be exact or a test limit, other limits are often not marked, values filed in µg/mL are converted to µM
The subject of assay [1] is Escherichia coli ATCC 25726.
Assay [2] deals with Staphylococcus aureus ATCC 25923.
For a further assay, the system named is Acinetobacter baumannii.
In assay [3] the test system is Candida albicans ATCC 90028.
For assay [4], the system named is Candida albicans ATCC 2002.
Assay [5] has as its system Escherichia coli ATCC 25922.
The test system of assay [6] is Pseudomonas aeruginosa CMCCB 10104.
In assay [7] the test system is Staphylococcus aureus ATCC 2592.
A further assay deals with Escherichia coli BW25113.

As a reminder, the MIC is the lowest concentration found to suppress growth. A high value points to a need for much substance.

Values after ≈ are worked out from the molar mass of the structure shown. A value given as a limit tells only on which side of the number the result lay.

Consider `CC[C@H](C)[C@H](NC(=O)[C@H](CCSC)NC(=O)[C@H](C)NC(=O)[C@H](CC(N)=O)NC(=O)[C@H](CCCCN)NC(=O)[C@H](Cc1ccccc1)NC(=O)[C@H](CO)NC(=O)[C@H](CC(=O)O)NC(=O)[C@H](CC(C)C)NC(=O)[C@H](Cc1ccccc1)NC(=O)CN)C(=O)NCC(=O)N[C@H](C(=O)N[C@@H](C)C(=O)N[C@@H](CCCCN)C(=O)N[C@@H](CO)C(=O)N[C@H](C(=O)NCC(=O)N[C@@H](CCCCN)C(=O)N[C@H](C(=O)N[C@@H](C)C(=O)N[C@@H](CC(C)C)C(=O)N[C@@H](CO)C(=O)N[C@H](C(=O)N[C@@H](CC(C)C)C(=O)N[C@@H](C)C(=O)N[C@H]1CSSC[C@@H](C(=O)O)NC(=O)[C@H](CO)NC(=O)[C@H](CCCCN)NC(=O)[C@H](CC(=O)O)NC(=O)[C@H]([C@@H](C)CC)NC(=O)[C@H](CCCCN)NC1=O)[C@@H](C)O)[C@@H](C)O)C(C)C)C(C)C` [GFLDSFKNAMIGVAKSVGKTALSTLACKIDKSC], for which the MIC in assay [1] was found to be 18.4 µM (≈ 62.5 µg/mL); in assay [2] it was 36.7 µM (≈ 125 µg/mL).

Turning to `CC[C@H](C)[C@H](NC(=O)CN)C(=O)N[C@@H](Cc1c[nH]c2ccccc12)C(=O)N[C@@H](CC(=O)O)C(=O)N[C@H](C(=O)N[C@H](C(=O)N[C@@H](CCCCN)C(=O)N[C@@H](CO)C(=O)N[C@@H](CCSC)C(=O)NCC(=O)N[C@@H](CCCCN)C(=O)N[C@H](C(=O)N[C@@H](Cc1ccccc1)C(=O)N[C@@H](C)C(=O)NCC(=O)N[C@@H](CC(C)C)C(=O)N[C@H](C(=O)N[C@@H](CC(C)C)C(=O)N[C@@H](CCC(N)=O)C(=O)N[C@@H](CC(N)=O)C(=O)N[C@@H](CC(C)C)C(N)=O)[C@@H](C)CC)C(C)C)[C@@H](C)CC)[C@@H](C)O` [GIWDTIKSMGKVFAGLILQNL], the MIC was 25 µM (≈ 57.6 µg/mL) in the assay with Acinetobacter baumannii, 12.5 µM (≈ 28.8 µg/mL) in assay [3], at least 100 µM in [1] and 25 µM (≈ 57.6 µg/mL) in [2].

In the case of `CC[C@H](C)[C@H](NC(=O)[C@H](CCCCN)NC(=O)[C@H](CO)NC(=O)[C@H](C)NC(=O)[C@H](Cc1c[nH]c2ccccc12)NC(=O)CN)C(=O)NCC(=O)N[C@@H](CCC(N)=O)C(=O)N[C@H](C(=O)N[C@@H](CC(C)C)C(=O)NCC(=O)N[C@@H](CCCCN)C(=O)N[C@@H](CCSC)C(=O)N[C@@H](C)C(=O)N[C@@H](CCCCN)C(=O)N[C@H](C(=O)NCC(=O)N[C@@H](CC(C)C)C(=O)N[C@@H](CCC(N)=O)C(=O)N[C@@H](CCC(=O)O)C(=O)N[C@@H](CC(C)C)C(=O)N[C@H](C(=O)N[C@@H](CCC(N)=O)C(=O)N1CCC[C@H]1C(=O)N[C@@H](CCCCN)C(=O)O)[C@@H](C)CC)C(C)C)[C@@H](C)O` [GWASKIGQTLGKMAKVGLQELIQPK], the MIC in assay [1] was at least 50 µM; in [2], 50 µM (≈ 134 µg/mL).

With `CC[C@H](C)[C@H](N)C(=O)N[C@@H](CC(C)C)C(=O)NCC(=O)N1CCC[C@H]1C(=O)N[C@H](C(=O)N[C@H](C(=O)N[C@@H](CO)C(=O)N[C@@H](CCCCN)C(=O)N[C@H](C(=O)NCC(=O)NCC(=O)N[C@H](C(=O)N[C@@H](CC(C)C)C(=O)NCC(=O)NCC(=O)N[C@@H](CC(C)C)C(=O)N[C@@H](CC(C)C)C(=O)N[C@@H](CCCCN)C(=O)N[C@@H](CC(N)=O)C(=O)N[C@@H](CC(C)C)C(N)=O)C(C)C)[C@@H](C)CC)[C@@H](C)CC)C(C)C` [ILGPVISKIGGVLGGLLKNL], the MIC is 3.06 µM (≈ 6 µg/mL) in [4], 6.12 µM (≈ 12 µg/mL) in assay [5], 6.12 µM (≈ 12 µg/mL) in assay [6] and 3.06 µM (≈ 6 µg/mL) in assay [7].

With `CC(C)C[C@@H]1NC(=O)[C@H](CCCN=C(N)N)NC(=O)[C@H](CC(C)C)NC(=O)[C@H](CC(C)C)NC(=O)[C@H](Cc2c[nH]c3ccccc23)NC(=O)[C@H](C(C)C)NC(=O)[C@H](Cc2ccc(O)cc2)NC(=O)[C@H](CC(C)C)NC(=O)[C@H](C(C)C)NC(=O)[C@H](CCC(N)=O)NC(=O)[C@@H](NC(=O)[C@H](Cc2ccccc2)NC(=O)[C@H](CC(N)=O)NC(=O)[C@H](CC(N)=O)NC(=O)[C@@H](N)CCCCN)CSSC[C@@H](C(=O)N[C@@H](Cc2ccccc2)C(=O)N[C@H](C(=O)N[C@@H](CCCCN)C(=O)N[C@@H](Cc2ccccc2)C(=O)N[C@@H](CO)C(=O)N[C@@H](CCCCN)C(=O)N[C@@H](CC(=O)O)C(=O)N[C@H](C(=O)N[C@@H](CCC(=O)O)C(=O)N[C@H](C(=O)O)[C@@H](C)O)C(C)C)C(C)C)NC(=O)[C@H](CCC(N)=O)NC(=O)[C@H](CCCCN)NC(=O)CNC1=O` [KNNFCQVLYVWLLRLGKQCFVKFSKDVET], the MIC in assay [4] is 28.5 µM (≈ 99.9 µg/mL); in assay [5], over 28.5 µM; in [6], 28.5 µM (≈ 99.9 µg/mL); in assay [2] it was over 28.5 µM.

In turn, `CC[C@H](C)[C@H](NC(=O)[C@@H]1CCCN1C(=O)[C@H](CCCN=C(N)N)NC(=O)[C@H](CCCN=C(N)N)NC(=O)[C@H](Cc1ccccc1)NC(=O)[C@@H](N)CCCN=C(N)N)C(=O)N[C@@H](CCCN=C(N)N)C(=O)N[C@@H](CCCN=C(N)N)C(=O)N1CCC[C@H]1C(=O)N1CCC[C@H]1C(=O)N[C@H](C(=O)N[C@@H](CCCN=C(N)N)C(=O)N1CCC[C@H]1C(=O)N1CCC[C@H]1C(=O)N[C@@H](Cc1ccccc1)C(=O)N[C@@H](Cc1ccc(O)cc1)C(=O)N1CCC[C@H]1C(=O)O)[C@@H](C)CC` [RFRRPIRRPPIRPPFYP] had an MIC with Escherichia coli BW25113 of 4 µM (≈ 8.89 µg/mL). This lies in the single-digit micromolar range.

For the compound `CC[C@H](C)[C@H](NC(=O)[C@@H]1CCCN1C(=O)[C@H](Cc1c[nH]c2ccccc12)NC(=O)[C@H](CCCN=C(N)N)NC(=O)[C@H](Cc1ccccc1)NC(=O)[C@@H](N)CCCN=C(N)N)C(=O)N[C@@H](CCCN=C(N)N)C(=O)N[C@@H](CCCN=C(N)N)C(=O)N[C@@H](CCCN=C(N)N)C(=O)N1CCC[C@H]1C(=O)N[C@H](C(=O)N[C@@H](CCCN=C(N)N)C(=O)N1CCC[C@H]1C(=O)N1CCC[C@H]1C(=O)N[C@@H](Cc1ccccc1)C(=O)N[C@@H](Cc1ccc(O)cc1)C(=O)N[C@@H](CCCN=C(N)N)C(=O)O)[C@@H](C)CC` [RFRWPIRRRPIRPPFYR], the MIC against Escherichia coli BW25113 is 8 µM (≈ 19 µg/mL).

Regarding `CC[C@H](C)[C@H](NC(=O)[C@@H]1CCCN1C(=O)[C@H](CCCN=C(N)N)NC(=O)[C@H](CCCN=C(N)N)NC(=O)[C@H](CCCN=C(N)N)NC(=O)[C@H](Cc1c[nH]c2ccccc12)NC(=O)[C@@H]1CCCN1C(=O)[C@H](CCCN=C(N)N)NC(=O)[C@H](CCCN=C(N)N)NC(=O)[C@H](Cc1c[nH]c2ccccc12)NC(=O)[C@@H](N)CCCN=C(N)N)C(=O)N[C@@H](CCCN=C(N)N)C(=O)N1CCC[C@H]1C(=O)N1CCC[C@H]1C(=O)N[C@@H](Cc1ccccc1)C(=O)N[C@@H](Cc1ccc(O)cc1)C(=O)N[C@@H](CCCN=C(N)N)C(=O)O` [RWRRPWRRRPIRPPFYR], the MIC in the assay on Escherichia coli BW25113 worked out at 8 µM (≈ 19.6 µg/mL).

Regarding `CC[C@H](C)[C@H](NC(=O)[C@H](CC(C)C)NC(=O)[C@H](CC(C)C)NC(=O)[C@H](CC(=O)O)NC(=O)[C@H](CCCCN)NC(=O)[C@@H](NC(=O)[C@@H](NC(=O)CNC(=O)[C@H](CCSC)NC(=O)[C@@H](NC(=O)[C@@H](N)CO)C(C)C)[C@@H](C)O)C(C)C)C(=O)NCC(=O)N[C@@H](C)C(=O)NCC(=O)N[C@@H](CCCCN)C(=O)N[C@@H](CO)C(=O)N[C@@H](C)C(=O)N[C@@H](C)C(=O)N[C@@H](CCC(N)=O)C(=O)N[C@@H](CO)C(=O)N[C@H](C(=O)N[C@@H](CC(C)C)C(=O)N[C@@H](CCCCN)C(=O)N[C@@H](CO)C(=O)N[C@@H](CC(C)C)C(=O)N[C@@H](CO)C(=O)N[C@H]1CSSC[C@@H](C(=O)O)NC(=O)[C@H](CC(=O)O)NC(=O)[C@H](CC(N)=O)NC(=O)[C@H](CO)NC(=O)[C@H](CC(C)C)NC(=O)[C@H](CCCCN)NC1=O)C(C)C` [SVMGTVKDLLIGAGKSAAQSVLKSLSCKLSNDC], the minimal inhibitory concentration (MIC) in assay [4] is 0.993 µM (≈ 3.3 µg/mL); in assay [5], 1.99 µM (≈ 6.6 µg/mL); in [6], 1.99 µM (≈ 6.6 µg/mL); in assay [2], 0.993 µM (≈ 3.3 µg/mL).
